What was measured:
female CD-1 mice = assay: Protection from 5-FU induced weight loss, study I (FIG. 2); format: in vivo; settings: n=6
Protocol: The aim of this study was to explore whether uridine combined with a uridine phosphorylase inhibitor provided better protection from weight loss produced by 5-FU compared to uridine alone. Weight loss is one of the cardinal features of mucositis.
Four groups of female CD-1 mice were treated with daily ip injections of either PBS vehicle (Group 1), 80 mg/kg, 5-FU qdx5 (Groups 2), or 80 mg/kg, 5-FU qdx5 combined with 750 mg/kg uridine, bid, or 80 mg/kg, 5-FU qdx5 combined with 750 mg/kg uridine and 120 mg/kg bid TK-90, a representative 2,2′-anhydropyrimidine test article, sandwiched before and after the uridine doses. Controls include PBS alone at times mimicking the time for 5-FU and combined uridine and TK-90 treatments. There was n=6 animals in all groups.
Animals were sacrificed on Day 5 by cervical dislocation and properly disposed. Animal weights were recorded daily for 5 days and the % difference between Day 0 and Day 5 at termination calculated.
Results from the study are provided as percent weight gain/loss from pre-dose weight on Day 0 in FIG. 2. […] The statistical difference between Groups 2 and 3 was much less robust (p=0.036).

C57BL/6 female mice = assay: Protection from decrease in plasma citrulline caused by 5-FU (FIG. 4); format: in vivo
Protocol: The chemotherapeutic challenge, 5-FU, was diminished plasma citrulline. […] Citrulline is a well-accepted surrogate marker for mucositis.
FIG. 4 depicts citrulline concentrations measured in plasma obtained at sacrifice on Day 3 from C57BL/6 female mice, approximately 20 g, treated on Day 0 with 200 mg/kg 5-FU, ip. On Days 0-2, the uridine and uridine+TK-90 group animals were dosed with […], bid. On Days 0-2, the uridine+TK-90 group animals were treated with 700 mg/kg TK-90, bid, in addition to the 5-FU on Day 0 and the uridine on Days 0-2. Animals in the PBS group were treated on Day 0-2 with PBS, bid. Data from all six mice in the PBS, uridine and uridine plus TK-90 groups were considered. Data from only five animals in the 5-FU group were considered because results from one animal was considered an outlier (unusually low response from the injected 5-FU). Plasma citrulline is a marker for mucosal health. […]
Thawed plasma samples from the study were analyzed for citrulline using a published LC/MS/MS-Isotope assay. (Jones et al., “Development and validation of a LC-MS/MS assay for quantitation of plasma citrulline for application to animal models of the acute radiation syndrome across multiple species,” Anal Bioanal Chem. (2014) 406 (19): 4663-75.).

[1] = man and animals (Deng et al. 2017); cited from earlier work
[2] = cited from earlier work

| SMILES | protection from 5-FU induced weight loss compared to the 5-FU group alone (female CD-1 mice; Day 5 vs Day 0, 5-FU 80 mg/kg qdx5, uridine 750 mg/kg bid, TK-90 120 mg/kg bid, ip) | protection from 5-FU lowered plasma citrulline (C57BL/6 female mice; 5-FU 200 mg/kg ip Day 0, uridine 250 mg bid Days 0-2, TK-90 700 mg/kg bid Days 0-2, plasma Day 3, n=6) | half-life of administered uridine [1] [min] | toxicities of continuous infusions of high-dose uridine ([2]; continuous infusion) | toxicity of high-dose oral uridine in clinical studies ([2]; oral, patients) | weight loss compared to the PBS vehicle control (percent weight change Day 5 vs Day 0) (female CD-1 mice; 80 mg/kg 5-FU qdx5 ip) | plasma citrulline compared to the PBS vehicle control (C57BL/6 female mice; 200 mg/kg 5-FU ip Day 0, plasma at Day 3, n=5) |
| --- | --- | --- | --- | --- | --- | --- | --- |
| O=c1ccn([C@@H]2O[C@H](CO)[C@@H](O)[C@H]2O)c(=O)[nH]1 [uridine] | statistically significant but much less | provided protection | ~3 | high fever, cellulitis, and superior vena cava syndrome | severe patient diarrhea, phlebitis, and pyrogenic reactions | – | – |
| O=c1[nH]cc(F)c(=O)[nH]1 [Compound 5-FU, 5-fluoro-2,4 (1H,3H)-Pyrimidinedione] | – | – | – | – | – | robust weight loss | significant reduction in citrulline |

Source: patent US12419893B2, “Methods and compositions for maximizing the prevention and/or reduction of various maladies and drug side-effects using uridine” (Tosk, Inc., priority 2018, dated 2025)
